From ChEMBL document CHEMBL3046605, “Biocontrol of rice blast by the phenaminomethylacetic acid producer of Bacillus methylotrophicus strain BC79” (2013) come the findings set out here.

Holding throughout (type): functional
Assay [1] has as its system Pyricularia oryzae. Briefly: Antifungal activity against Magnaporthe oryzae in rice seedlings assessed as rice blast disease incidence treated 24 hr prior to fungal inoculation at 15% measured at 6 days post-inoculation under green house conditions (reference value: 92.4 +/-5.6%).
Assay [2] has as its system Pyricularia oryzae. Description: Antifungal activity against Magnaporthe oryzae in rice seedlings assessed as rice blast disease control efficacy at 15% with formulation dose of 400 g/667 m'2 applied using knapsack sprayer measured under field trials.
Assay [3] relates to Pyricularia oryzae. Briefly: Antifungal activity against Magnaporthe oryzae in rice seedlings assessed as rice yield at 15% with formulation dose of 200 g/667 m'2 applied using knapsack sprayer measured under field trials (reference value: 5940.6 +/-1.8 kg/hm'2).
Assay [4] has as its system Pyricularia oryzae. Briefly: Antifungal activity against Magnaporthe oryzae in rice seedlings assessed as rice blast disease incidence at 15% with formulation dose of 200 g/667 m'2 applied using knapsack sprayer measured under field trials (reference value: 43.7 +/-5.4%).
Assay [5] relates to Pyricularia oryzae. Briefly: Antifungal activity against Magnaporthe oryzae in rice seedlings assessed as rice blast disease control efficacy treated 24 hr prior to fungal inoculation at 15% measured at 6 days post-inoculation under green house conditions.
Assay [6] has as its system Pyricularia oryzae. Description: Antifungal activity against Magnaporthe oryzae in rice seedlings assessed as rice blast disease control efficacy at 15% with formulation dose of 200 g/667 m'2 applied using knapsack sprayer measured under field trials.
In assay [7] the test system is Pyricularia oryzae. Briefly: Antifungal activity against Magnaporthe oryzae in rice seedlings assessed as rice blast disease incidence treated after fungal inoculation at 15% measured under green house conditions (reference value: 92.4 +/-5.6%).
Assay [8] relates to Pyricularia oryzae. Briefly: Antifungal activity against Magnaporthe oryzae in rice seedlings assessed as rice blast disease control efficacy treated after fungal inoculation at 15% measured under green house conditions.
Assay [9] relates to Pyricularia oryzae. Briefly: Antifungal activity against Magnaporthe oryzae in rice seedlings assessed as rice yield at 15% with formulation dose of 400 g/667 m'2 applied using knapsack sprayer measured under field trials (reference value: 5940.6 +/-1.8 kg/hm'2).
Assay [10] concerns Pyricularia oryzae. Briefly: Antifungal activity against Magnaporthe oryzae in rice seedlings assessed as rice blast disease incidence at 15% with formulation dose of 400 g/667 m'2 applied using knapsack sprayer measured under field trials (reference value: 43.7 +/-5.4%).

`O=C(O)CCNc1ccccc1` [PHENAMINO METHYL ACETIC ACID]: the Activity was 62.5% in the assay with Pyricularia oryzae [1]; 6480.5 Kg/hr.m2 in the assay on Pyricularia oryzae [3]; 18.3% in the assay with Pyricularia oryzae [4]; 60% in the assay on Pyricularia oryzae [7]; 6275.7 Kg/hr.m2 in the assay on Pyricularia oryzae [9]; 18.3% in the assay with Pyricularia oryzae [10]. Further, the Efficacy was 75.5% in the assay with Pyricularia oryzae [2], 74.3% in the assay with Pyricularia oryzae [5], 68.3% with Pyricularia oryzae [6] and 73.6% in the assay on Pyricularia oryzae [8].
